Patent US9850366B2, “Epdxidized fatty acid alkyl ester plasticizers and methods for making epdxidized fatty acid alkyl ester plasticizers” (Dow Global Technologies LLC, priority 2012, dated 2017)

Assay: Water solubility (water content of plasticizer by Karl Fischer titration after mixing with water)
Format: physicochemical
Conditions: Table 1; water uptake of plasticizer at room temperature
Protocol: Water Solubility 20 mL of plasticizer is taken in a beaker and mixed with equal volume of distilled water. The mixture is stirred vigorously at room temperature and allowed to settle in a separating funnel. The mixture forms an emulsion which takes approximately 24 hours to form separate layers of organic and aqueous phases. After 48 hours, the two layers are separated. The aqueous layer is drained and the organic layer containing plasticizer and some water is recovered. The organic layer contains water in dissolved form as well as in the fine emulsion form. This layer is centrifuged at 7000 rpm for one hour. This step separates water trapped in the plasticizer in dispersed form. The plasticizer is further analyzed for water content with the help of wet chemistry methods. Carl Fischer titration method is used to determine the water content in plasticizer.

Water solubility (%) | Compound
0.68 | CCCCCCCCC1OC1CCCCCCCC(=O)OC (stereo not drawn) [Sample S1, epoxidized methyl oleate]

Assay: not given
Format: physicochemical
Conditions: not given
Protocol: Solubility in PVC is determined according to American Society for Testing and Materials (“ASTM”) method D 3367-98. […] Water solubility of the epoxidized fatty acid alkyl ester is determined according to the procedures described in the Test Methods section, below. Solubility in PVC Measure solubility in PVC according to ASTM D 3367-98. Test parameters, such as the design of centrifuge tubes, soak temperature, soak time, drainage of plasticizer, and centrifuge speed to remove excess plasticizer, are optimized to be able to capture differences in plasticizer absorption and solubilities of different plasticizers in PVC. Centrifuge tubes with a 0.8 mm diameter hole at the bottom are used for the test. […] During the soak time, the plasticizer molecules wet the cell walls of PVC particles and penetrate through it due to its porosity. Once inside, the molecules start filling the void space. After the void space is completely filled with plasticizer, the PVC primary particles start absorbing the plasticizer. This absorption is relatively slow and continues until the primary particles reach saturation limit. It is therefore important to optimize the PVC/plasticizer soaking temperature and time. […] The plasticizer absorbed by PVC is measured from the weight gain of PVC (after accounting for weight gain due to plasticizer absorbed by cotton).

Solubility in PVC (g/100 g PVC) | Compound
244 | CCCCCC1OC1CC1OC1CCCCCCCC(=O)OC (stereo not drawn) [Sample S2, epoxidized methyl linoleate]
34.1 | CCCCCCCC[C@H]1O[C@H]1CCCCCCCC(=O)OC(C)C [Sample S7]

Assay: Solution temperature of PVC in plasticizer (DIN 53408)
Format: physicochemical
Conditions: 0.6 g PVC in 15 mL plasticizer, heated at 1° C./min
Protocol: In various embodiments, the polymeric resin (such as PVC) has a solution temperature in the above-described plasticizer of less than 180° C., less than 170° C., or less than 160° C., as determined by Deutsches Institut für Normung (“DIN”) standard method 53 408.
Determine solution temperature in accordance with Deutsches Institut für Normung (“DIN”) 53408. Important test parameters such as the PVC/plasticizer amount and heating rate are optimized to be able to capture differences in solution temperature of different plasticizers in PVC. 0.6 g PVC is accurately weighed in a 20-mL glass vial and 15 mL of plasticizer is added to the PVC. The contents of the glass vial are stirred using a magnetic stirrer and heated using an oil bath at 1° C./min. A thermometer is used to record the temperature of the PVC/plasticizer mixture which is illuminated with a flash-light. When PVC is mixed with a plasticizer, a milky solution is generally obtained. As the temperature of the PVC/plasticizer mixture is raised, the PVC starts to imbibe the plasticizer and becomes translucent. As the temperature is raised further, the PVC particles swell and lose their shape forming a gel. At the solution temperature, a clear solution is obtained.

Compound | Solution temperature (° C.) [°C]
CCCCCC1OC1CC1OC1CCCCCCCC(=O)OC (stereo not drawn) [Sample S2, epoxidized methyl linoleate] | 88
CCCCCCCC[C@H]1O[C@H]1CCCCCCCC(=O)OC(C)C [Sample S7] | 134
CCCCCCCCC1OC1CCCCCCCC(=O)OC (stereo not drawn) [Sample S1, epoxidized methyl oleate] | 114

Second part, the compound after the results:

Solution temperature (° C.) [°C] | Compound
98 | epoxidized methyl linolenate [CS3, reference compound]
124 | epoxidized methyl linolenate [CS2, reference compound]
98 | epoxidized methyl linolenate [CS4, reference compound]
